# Results as given in ChEMBL document CHEMBL1201862, “PubChem BioAssay data set” (2004).
# Active and inactive are the calls of the source.
# Experiments:
# fMet-Leu-Phe receptor = target: T1, fMet-Leu-Phe receptor (Homo sapiens, UniProt P21462); experiment: formyl peptide receptor binders – dose response (AID 519); type: functional
# T1 sequence (P21462 whole entry): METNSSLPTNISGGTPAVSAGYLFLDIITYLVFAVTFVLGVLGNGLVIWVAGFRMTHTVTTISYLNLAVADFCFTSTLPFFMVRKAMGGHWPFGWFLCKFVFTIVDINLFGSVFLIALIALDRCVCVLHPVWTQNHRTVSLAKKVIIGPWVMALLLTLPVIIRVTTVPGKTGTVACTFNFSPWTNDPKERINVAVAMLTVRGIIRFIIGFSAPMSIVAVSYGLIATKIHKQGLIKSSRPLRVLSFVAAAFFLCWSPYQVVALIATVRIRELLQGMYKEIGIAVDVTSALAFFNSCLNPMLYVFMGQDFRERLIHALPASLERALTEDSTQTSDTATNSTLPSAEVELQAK
# Protein Tat = target: T2, Protein Tat (Human immunodeficiency virus type 1 group M subtype B (isolate HXB2)(HIV-1), UniProt P04608); type: functional;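 note: tat binding to TAR RNA read out by fluorescence polarization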
# T2 sequence (P04608 whole entry): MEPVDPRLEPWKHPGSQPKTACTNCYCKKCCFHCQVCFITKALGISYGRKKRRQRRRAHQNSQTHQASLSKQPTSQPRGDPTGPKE
# [1] = IC50 of Artemis nuclease activity blockers – biochemical, fluorescence intensity, dose response (AID 720701); type: functional;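 note: Artemis endonuclease enzyme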
# Streptococcus = experiment: GAS UMAA2166 growth inhibition – luminescence, BacTiterGlo, counter-screen for streptokinase expression inhibitor project, dose response (AID 1915); type: functional, organism-based;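 note: potency for reduction of bacterial viability or growth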
# [2] = system: Streptococcus sp. 'group A'; experiment: Streptococcus pyogenes SK(-)GAS viability under kanamycin – luminescence, BacTiterGlo, confirmation, counter-screen for streptokinase expression inhibitor project, dose response (AID 1900); type: functional, organism-based
# [3] = viability inhibitors of stage V gametocytes – luminescence, dose response (AID 1117278); type: functional, cell-based;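 note: gametocytes exposed to compound for 24 hours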
# [4] = viability loss in human Jurkat cells – cell-based, luminescence, cytotoxicity control for P. falciparum gametocyte viability project, dose response (AID 1117277); type: functional;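 note: potency reflects loss of cellular ATP meaning fewer viable cells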
# [5] = target: T3, Fructose-bisphosphate aldolase (Mycobacterium tuberculosis, UniProt P9WQA3); experiment: Fluorescence-based biochemical high throughput dose response assay for inhibitors of the fructose-bisphosphate aldolase (FBA) of M. tuberculosis.; type: functional
# T3 sequence (P9WQA3 whole entry): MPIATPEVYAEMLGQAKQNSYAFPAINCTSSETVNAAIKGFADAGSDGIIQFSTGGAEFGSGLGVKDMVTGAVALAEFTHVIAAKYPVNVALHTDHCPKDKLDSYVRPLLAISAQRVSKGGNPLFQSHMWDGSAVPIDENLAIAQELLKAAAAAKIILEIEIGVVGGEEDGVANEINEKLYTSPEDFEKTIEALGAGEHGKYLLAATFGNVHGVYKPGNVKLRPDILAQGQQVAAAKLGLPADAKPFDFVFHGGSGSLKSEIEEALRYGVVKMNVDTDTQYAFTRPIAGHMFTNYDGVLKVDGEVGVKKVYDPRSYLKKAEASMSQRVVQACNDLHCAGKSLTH
# [6] = blockers of bursicon-stimulated LGR2 cAMP reporter – cell-based, HEK293, CRE-luciferase reporter, cherry pick, set 2, dose response (AID 743343); type: functional;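 note: transfected cells were stimulated with diluted bursicon conditioned medium after compound addition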
# HEK293 = experiment: EBV LMP1 TES2 canonical NF-kB signalling blockers – cell-based, HEK293, luciferase, cherry-pick, dose response (AID 588343); type: functional; settings: Homo sapiens
# [7] = toxicity toward HepG2 liver cells – cell-based, plate reader, cherry-pick, antagonist series, cytotoxicity control, dose response (AID 743416); type: functional
# [8] = blockade of melanocortin 4 receptor signaling – cell-based, plate reader, cherry pick, counter-screen for LGR2 antagonist project, dose response (AID 743444); type: functional;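 note: transfected HEK 293 cells stimulated with alpha-MSH peptide; potency of inhibitors of the alpha-MSH evoked signal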
# [9] = viability loss in HEK293 cells – cell-based, plate reader, cherry-picked samples, cytotoxicity control, dose response (AID 743446); type: functional
# Paired box protein Pax-8 = Paired box protein Pax-8 (Homo sapiens, UniProt Q06710); experiment: PAX8 transcriptional activity inhibition in RMG-I – RMG-I cells, luciferase, cherry-pick, dose response (AID 687027); type: functional, cell-based;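 note: luciferase reporter driven by Pax8 target thyroperoxidase promoter measured by SteadyGlo luminescence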
# [10] = A549 cell cytotoxicity, dose response, cytotoxicity control, plate reader, cherry-pick, antagonist series (AID 743412); type: functional, cell-based
# [11] = NIH-3T3 fibroblast cytotoxicity, dose response, cytotoxicity control, cell-based, fluorescence, Alamar Blue, secondary assay (AID 2327); type: functional;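 note: NIH-3T3 mouse fibroblasts cultured with fluconazole at 8 µg/mL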
# [12] = fluconazole-exposed Candida albicans growth modulators – fluorescence, retest, confirmation (AID 2467); type: functional, cell-based
# Chain of Paired box protein Pax-8 (Q06710 whole entry): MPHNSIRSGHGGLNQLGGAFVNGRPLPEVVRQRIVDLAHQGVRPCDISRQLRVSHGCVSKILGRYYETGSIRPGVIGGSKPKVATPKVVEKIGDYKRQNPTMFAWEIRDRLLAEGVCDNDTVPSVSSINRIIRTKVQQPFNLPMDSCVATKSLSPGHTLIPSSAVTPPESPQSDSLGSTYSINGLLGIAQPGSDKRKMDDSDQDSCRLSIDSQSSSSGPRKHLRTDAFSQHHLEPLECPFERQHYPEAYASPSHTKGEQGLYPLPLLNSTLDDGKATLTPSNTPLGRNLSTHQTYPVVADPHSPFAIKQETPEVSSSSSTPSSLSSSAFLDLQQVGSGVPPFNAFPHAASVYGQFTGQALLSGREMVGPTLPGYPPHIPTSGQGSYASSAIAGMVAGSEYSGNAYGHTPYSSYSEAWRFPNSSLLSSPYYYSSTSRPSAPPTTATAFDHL
smiles,measurement,setting,value
COc1ccc(NC(=O)C(c2ccc(C)cc2)N(C)C(=O)c2cnccn2)cc1 (stereo unspecified),Ki,fMet-Leu-Phe receptor,> 66.7 µM (inactive)
CCC(=O)Nc1cc(C)c(NC(=O)C23CC4CC(CC(C4)C2)C3)cn1,IC50,Protein Tat,> 100 µM (active)
CC(C)Cn1c2c(c(O)c(C(=O)Nc3ncccc3O)c1=O)CCCC2,IC50,[1],16.3 µM (active)
same,EC50,Streptococcus,3.34 µM (active)
same,EC50,[2],2.97 µM (active)
COc1ccc(-c2nc(C[S+]([O-])CC(=O)NCCCN3CC(C)CC(C)C3)c(C)o2)cc1OC (stereo unspecified),IC50,[3],> 109 µM (inactive)
same,IC50,[4],> 83.3 µM (inactive)
CCCc1cc(O)nc(SCC(=O)N2CCN(S(=O)(=O)c3ccc4ccccc4c3)CC2)n1,IC50,[3],> 109 µM (inactive)
same,IC50,[4],> 83.3 µM (inactive)
CC(=O)N1CCN(C(=O)c2cc(-c3ccc(Cl)s3)nc3ccccc23)CC1,IC50,[5],1.17 µM (active)
COc1ccc(-c2[nH]ncc2-c2ccc3c(c2)OCCO3)c(O)c1,AC50,[6],2.97 µM (active)
same,AC50,HEK293,1.78 µM (active)
same,AC50,[7],> 52 µM (inactive)
same,AC50,[8],0.723 µM (active)
same,AC50,[9],> 52 µM (inactive)
Cn1nnnc1Sc1ncnc2scc(-c3ccc([N+](=O)[O-])cc3)c12,AC50,[6],6.25 µM (active)
same,AC50,[7],7.05 µM (active)
same,AC50,[8],5.32 µM (active)
same,AC50,[9],6.48 µM (active)
same,AC50,Paired box protein Pax-8,2.57 µM (active)
same,AC50,[10],6.71 µM (active)
CCOC(=O)CNC(=O)c1cc(OC)cc(OC)c1,IC50,[3],> 109 µM (inactive)
same,IC50,[4],> 83.3 µM (inactive)
Nc1ncc2c(n1)-c1ccccc1CC2,IC50,[5],1.53 µM (active)
COCCN1C(=O)C(O)=C(C(=O)c2ccco2)C1c1cccc(Oc2ccccc2)c1 (stereo unspecified),EC50,[11],> 150 µM (inactive)
same,Ki,fMet-Leu-Phe receptor,56 µM (inactive)
same,EC50,[12],4.35 µM (active)
COc1ccc(-n2ncc3c(N4CCC(C)CC4)ncnc32)cc1,AC50,[6],11.6 µM (active)
same,AC50,[7],> 52 µM (inactive)
same,AC50,[8],19.3 µM (active)
same,AC50,[9],> 52 µM (inactive)
